pIC50: −log10 of the molar value. Counter-ions that a name gives are not always drawn. Like-named read-outs stand apart in the source and are kept apart here.
Target: T1, recombinant full-length USP7 (Homo sapiens, UniProt Q93009)
T1 construct: A 25 μl reaction volume containing recombinant full-length USP7 (62 pM)
Assay: USP7-mediated ubiquitin-rhodamine cleavage assay
Assay type: biochemical
Conditions: recombinant full-length USP7 62 pM, ubiquitin-rhodamine 100 nM, 1 hour reaction at room temperature
Outline: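 Rhodamine fluorescence read-out after acetic acid stop; IC50 by 4-parameter nonlinear regression. Enzyme at 62 pM, substrate ubiquitin-rhodamine 100 nM final, 1 h at room temperature in the dark, after 30 min compound preincubation. Buffer: HEPES pH 7.3, NaCl, TCEP, BSA; 1% DMSO.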

[1] = 30-minute incubation with compound, read-out: Potency: USP7 IC50
[2] = 30-minute pre-incubation, read-out: Potency (USP7 IC50)

T1 sequence (Q93009 whole entry): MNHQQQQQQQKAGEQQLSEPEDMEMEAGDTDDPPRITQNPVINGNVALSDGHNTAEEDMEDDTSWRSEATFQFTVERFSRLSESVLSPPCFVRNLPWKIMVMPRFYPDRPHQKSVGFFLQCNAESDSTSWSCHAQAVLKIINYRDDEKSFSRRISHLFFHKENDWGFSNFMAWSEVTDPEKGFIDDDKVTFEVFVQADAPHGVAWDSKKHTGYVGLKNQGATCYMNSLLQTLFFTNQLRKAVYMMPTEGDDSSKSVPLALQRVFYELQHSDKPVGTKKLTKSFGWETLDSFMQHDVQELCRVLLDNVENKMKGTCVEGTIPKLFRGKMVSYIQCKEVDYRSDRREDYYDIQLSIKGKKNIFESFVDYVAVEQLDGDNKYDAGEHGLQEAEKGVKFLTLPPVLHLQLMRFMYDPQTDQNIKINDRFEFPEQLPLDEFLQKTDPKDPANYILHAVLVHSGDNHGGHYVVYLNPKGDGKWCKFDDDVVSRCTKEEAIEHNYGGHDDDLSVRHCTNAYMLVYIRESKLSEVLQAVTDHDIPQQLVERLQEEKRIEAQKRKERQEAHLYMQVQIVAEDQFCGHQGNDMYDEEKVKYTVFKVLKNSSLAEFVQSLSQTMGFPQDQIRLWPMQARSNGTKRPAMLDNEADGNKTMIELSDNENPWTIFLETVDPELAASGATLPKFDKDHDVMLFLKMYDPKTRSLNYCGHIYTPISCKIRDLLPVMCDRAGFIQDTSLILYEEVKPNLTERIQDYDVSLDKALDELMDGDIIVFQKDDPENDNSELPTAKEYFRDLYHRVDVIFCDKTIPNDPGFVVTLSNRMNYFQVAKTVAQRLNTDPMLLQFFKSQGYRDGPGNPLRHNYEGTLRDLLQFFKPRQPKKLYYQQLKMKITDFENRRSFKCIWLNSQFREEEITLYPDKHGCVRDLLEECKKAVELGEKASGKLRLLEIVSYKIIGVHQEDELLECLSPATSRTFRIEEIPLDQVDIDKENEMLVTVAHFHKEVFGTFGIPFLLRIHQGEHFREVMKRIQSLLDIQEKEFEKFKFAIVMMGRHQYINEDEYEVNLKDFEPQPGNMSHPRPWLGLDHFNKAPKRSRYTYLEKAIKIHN

Row | SMILES | pIC50 [1] | pIC50 [2]
1 | Cc1cc(Cl)cc(-c2ccnc3ccsc23)c1OC1CCNCC1 [Example 180, 7-(5-Chloro-3-methyl-2-(piperidin-4-yloxy)phenyl)thieno[3,2-b]pyridine] | 4.52 to 5.00 | 
2 | Cc1cc(Cl)cc(-c2ccnc3cc(CO)sc23)c1OC[C@@H]1CNCCN1 [Example 168, (S)-(7-(5-Chloro-3-methyl-2-(piperazin-2-ylmethoxy)phenyl)thieno[3,2-b]pyridin-2-yl)methanol] | 4.52 to 5.00 | 
3 | COc1ccc(C(=O)O)cc1-c1ccnc2cc(Cn3c(=O)ccn(CC(F)(F)F)c3=O)sc12 [Example 290, 3-[2-[[2,6-dioxo-3-(2,2,2-trifluoroethyl)pyrimidin-1-yl]methyl]thieno[3,2-b]pyridin-7-yl]-4-methoxy-benzoic acid] | 5.00 to 6.00 | 
4 | Cc1cc(Cl)cc(-c2ccnc3cc(Cn4c(=O)ccn(C)c4=O)sc23)c1OC1CNCC(C)(C)C1 (centres unmarked) [Example 6, 3-((7-(5-Chloro-2-((5,5-dimethylpiperidin-3-yl)oxy)-3-methylphenyl)thieno[3,2-b]pyridin-2-yl)methyl)-1-methylpyrimidine-2,4(1H,3H)-dione] | > 6.00 | 
5 | O=C1CCC(=O)N1Cc1cc2nccc(-c3cc(Cl)cc(C(F)F)c3OC3CCNCC3)c2s1 [Example 431, 1-[[7-[5-chloro-3-(difluoromethyl)-2-(4-piperidyloxy)phenyl]thieno[3,2-b]pyridin-2-yl]methyl]pyrrolidine-2,5-dione dihydrochloride] |  | > 6.00
6 | CC(=O)N[C@H]1CNC[C@H]1Oc1c(C)cc(Cl)cc1-c1ccnc2cc(CN3C(=O)CCC3=O)sc12 [Example 85, N-((3S,4R)-4-(4-Chloro-2-(2-((2,5-dioxopyrrolidin-1-yl)methyl)thieno[3,2-b]pyridin-7-yl)-6-methylphenoxy)pyrrolidin-3-yl)acetamide] | 5.00 to 6.00 | 
7 | Cc1cc(Cl)cc(-c2ccnc3cc(CN4C(=O)CCC4=O)sc23)c1O[C@@H]1CNC(C(=O)N(C)C)C1 (stereo partly drawn) [Example 64, (4S)-4-(4-Chloro-2-(2-((2,5-dioxopyrrolidin-1-yl)methyl)thieno[3,2-b]pyridin-7-yl)-6-methylphenoxy)-N,N-dimethylpyrrolidine-2-carboxamide] | 5.00 to 6.00 | 
8 | Cc1cc(Cl)cc(-c2ccnc3cc(Cn4c(=O)ccn(CC(F)(F)F)c4=O)sc23)c1O[C@@H]1CCNC[C@@H]1C [Example 549, 3-[[7-[5-chloro-3-methyl-2-[[(3S,4R)-3-methyl-4-piperidyl]oxy]phenyl]thieno[3,2-b]pyridin-2-yl]methyl]-1-(2,2,2-trifluoroethyl)pyrimidine-2,4-dione] |  | > 6.00
9 | Cc1cc(Cl)cc(-c2ccnc3cc(Cn4c(=O)ccn(CC(F)(F)F)c4=O)sc23)c1O[C@@H]1CNC[C@H](F)C1 [Example 623, 3-[[7-[5-chloro-2-[[(3S,5R)-5-fluoro-3-piperidyl]oxy]-3-methyl-phenyl]thieno[3,2-b]pyridin-2-yl]methyl]-1-(2,2,2-trifluoroethyl)pyrimidine-2,4-dione; 2,2,2-trifluoroacetic acid] |  | > 6.00
10 | Cc1cc(Cl)cc(-c2ccnc3cc(Cn4c(=O)ccn(C)c4=O)sc23)c1OC1C(C)(C)C(N)C1(C)C (centres unmarked) [Example 538, 3-[[7-[2-(3-amino-2,2,4,4-tetramethyl-cyclobutoxy)-5-chloro-3-methyl-phenyl]thieno[3,2-b]pyridin-2-yl]methyl]-1-methyl-pyrimidine-2,4-dione] |  | > 6.00
11 | Cc1cc(Cl)cc(-c2ccnc3cc(CO)sc23)c1O[C@@H]1CN[C@@H](CO)C1 [Example 76, (7-(5-Chloro-2-(((3S,5R)-5-(hydroxymethyl)pyrrolidin-3-yl)oxy)-3-methylphenyl)thieno[3,2-b]pyridin-2-yl)methanol] | 4.52 to 5.00 | 
12 | Cc1cc(Cl)cc(-c2ncnc3cc(Cn4c(=O)ccn(CC(F)(F)F)c4=O)sc23)c1OC1CC2CNC1C2 (centres unmarked) [Example 526, 3-[[4-[2-(3-azabicyclo[2.2.1]heptan-5-yloxy)-5-chloro-3-methyl-phenyl]thieno[3,2-d]pyrimidin-6-yl]methyl]-1-(2,2,2-trifluoroethyl)pyrimidine-2,4-dione] |  | > 6.00
13 | Cc1cc(Cl)cc(-c2ccnc3cc(Cn4c(=O)ccn(C)c4=O)sc23)c1O[C@H]1CCN[C@@H](C)C1 [Example 593, 3-[[7-[5-chloro-3-methyl-2-[[(2S,4S)-2-methyl-4-piperidyl]oxy]phenyl]thieno[3,2-b]pyridin-2-yl]methyl]-1-methyl-pyrimidine-2,4-dione] |  | > 6.00
14 | Cc1cc(Cl)cc(-c2ccnc3cc(Cn4c(=O)ccn(C)c4=O)sc23)c1OC1CCNCC1(C)C (centres unmarked) [Example 546, 3-[[7-[5-chloro-2-[(3,3-dimethyl-4-piperidyl)oxy]-3-methyl-phenyl]thieno[3,2-b]pyridin-2-yl]methyl]-1-methyl-pyrimidine-2,4-dione; 2,2,2-trifluoroacetic acid] |  | > 6.00
15 | CC[C@@H]1C[C@H](Oc2c(C)cc(Cl)cc2-c2ccnc3cc(Cn4c(=O)ccn(CC(F)(F)F)c4=O)sc23)CCN1 [Example 636, 3-[[7-[5-chloro-2-[[(2R,4R)-2-ethyl-4-piperidyl]oxy]-3-methyl-phenyl]thieno[3,2-b]pyridin-2-yl]methyl]-1-(2,2,2-trifluoroethyl)pyrimidine-2,4-dione] |  | > 6.00
16 | CCC(O)c1cc2nccc(-c3cc(Cl)cc(C)c3O[C@@H]3CNC[C@@H]3F)c2s1 (stereo partly drawn) [Example 82, 1-(7-(5-Chloro-2-(((3R,4S)-4-fluoropyrrolidin-3-yl)oxy)-3-methylphenyl)thieno[3,2-b]pyridin-2-yl)propan-1-ol] | 5.00 to 6.00 | 
17 | Cc1cc(Cl)cc(-c2ccnc3ccsc23)c1OC1CCCCNC1 (centres unmarked) [Example 264, 7-(2-(Azepan-3-yloxy)-5-chloro-3-methylphenyl)thieno[3,2-b]pyridine] | 4.52 to 5.00 | 
18 | Cc1cc(Cl)cc(-c2ccnc3cc(CO)sc23)c1OCC1(C)CNC1 [Example 17, (7-(5-Chloro-3-methyl-2-((3-methylazetidin-3-yl)methoxy)phenyl)thieno[3,2-b]pyridin-2-yl)methanol] | 5.00 to 6.00 | 
19 | CC(=O)N[C@H]1CNC[C@H]1Oc1c(C)cc(Cl)cc1-c1ccnc2cc(CO)sc12 [Example 84, N-((3S,4R)-4-(4-Chloro-2-(2-(hydroxymethyl)thieno[3,2-b]pyridin-7-yl)-6-methylphenoxy)pyrrolidin-3-yl)acetamide] | 4.52 to 5.00 | 
20 | Cc1cc(Cl)cc(-c2ccnc3cc(CO)sc23)c1OCC1CCNC1 (centres unmarked) [Example 70, (7-(5-Chloro-3-methyl-2-(pyrrolidin-3-ylmethoxy)phenyl)thieno[3,2-b]pyridin-2-yl)methanol] | 4.52 to 5.00 | 
21 | Cc1cc(Cl)cc(-c2ccnc3cc(Cn4c(=O)ccn(CC(F)(F)F)c4=O)sc23)c1OC1CC(N2CCOC[C@@H]2C)C1 (stereo partly drawn) [Example 658, 3-[[7-[5-chloro-3-methyl-2-[3-[(3S)-3-methylmorpholin-4-yl]cyclobutoxy]phenyl]thieno[3,2-b]pyridin-2-yl]methyl]-1-(2,2,2-trifluoroethyl)pyrimidine-2,4-dione; 2,2,2-trifluoroacetic acid] |  | > 6.00
22 | Cc1cc(Cl)cc(-c2ncnc3ccsc23)c1O[C@H]1CCCNC1 [Example 262, (S)-4-(5-Chloro-3-methyl-2-(piperidin-3-yloxy)phenyl)thieno[3,2-d]pyrimidine] | 4.52 to 5.00 | 
23 | Cc1cc2nccc(-c3cc(Cl)ccc3OCC3CNC3)c2s1 [Example 28, 7-(2-(Azetidin-3-ylmethoxy)-5-chlorophenyl)-2-methylthieno[3,2-b]pyridine] | 5.00 to 6.00 | 

Reference: patent US10722514B2 (FLX Bio, Inc., priority 2017, dated 2020)
